Experiments:
Assay type in all cases: in vivo
[1] = system: Echinochloa crus-galli (L.) P. Beauv. var. formosensis Ohwi; experiment: Test for Herbicidal Effect in Flooding Treatment (#1), ECHDG; conditions: flooding treatment at seeding, dose 2 kg/ha, visual observation on day 21
Description: (§1) (#1) Test for Herbicidal Effect in Flooding Treatment: Styrol cups each having an opening diameter of 8 cm (about 52 cm^2) were respectively filled with soil (45 ml) which had been passed through a sieve (2 mm). Water (about 115 ml) was mixed with the soil such that the soil was flooded. After the soil stood still for 24 hours, Monochoria vaginalis, Echinochloa crus-galli (L.) P. Beauv. var. formosensis Ohwi, Cyperus difformis (umbrella sedge), and Scirpus juncoides were seeded. Each of the compounds of the present invention was dissolved in acetone, and the obtained product was then diluted with water containing Tween 80®. Each of the resultant chemical solutions was dropped on the entire surface of an associated one of treatment sections, so that each section was treated with 1 ml of the respective chemical solution (a dose of 2 kg/ha). After the treatment, the plants were grown in a glasshouse. On day 21, a survey was conducted on the herbicidal activity by visual observation, and evaluation was made according to the following criteria. 0: Growth inhibition effect is less than 10%. 1: Growth inhibition effect is equal to or greater than 10%, and less than 30%. 2; Growth inhibition effect is equal to or greater than 30%, and less than 50%. 3: Growth inhibition effect equal to or greater than 50%, and less than 70%. 4: Growth inhibition effect is equal to or greater than 70%, and less than 90%. 5: Growth inhibition effect is equal to or greater than 90%, or complete withering is achieved. ECHDG=Echinochloa crus-galli (L.) P. Beauv. var. formosensis Ohwi, MONVA=Monochoria vaginalis, SCIJU=Scirpus juncoides, CYMIC=Cyperus microiria.

Scirpus juncoides = experiment: Test for Herbicidal Effect in Flooding Treatment (#1), SCIJU; conditions: flooding treatment at seeding, dose 2 kg/ha, visual observation on day 21
Description: as §1

[2] = system: Echinochloa crus-galli (L.) P. Beauv. var. formosensis Ohwi; experiment: Test for Herbicidal Effect in Flooding Treatment (#2), ECHDG at 2-2.5 leaf stage; conditions: flooding treatment at 2-2.5 leaf stage, dose 0.2 kg/ha, visual observation on day 21
Description: (#2) Test for Herbicidal Effect in Flooding Treatment: Styrol cups each having an opening diameter of 13 cm (about 130 cm^2) were respectively filled with muddy soil (500 ml). Water (about 300 ml) was mixed with the soil such that the soil was flooded. After the soil stood still for 24 hours, Echinochloa crus-galli (L.) P. Beauv. var. formosensis Ohwi was seeded. When the Echinochloa crus-galli (L.) P. Beauv. var. formosensis Ohwi grew to reach 2-2.5 leaf stage, chemical solutions were dropped on the entire surface of treatment sections, so that each section is treated with 1 ml of the respective chemical solution (a dose of 0.2 kg/ha). Each of the chemical solutions was prepared by dissolving associated one of the compounds of the present invention in acetone, followed by dilution with water containing Tween 80 g. After the treatment, the plants were grown in a glasshouse. On day 21, a survey was conducted on the herbicidal activity by visual observation, and evaluation was made according to the following criteria. 0: Growth inhibition effect is less than 10%. 1: Growth inhibition effect is equal to or greater than 10%, and less than 30%. 2; Growth inhibition effect is equal to or greater than 30%, and less than 50%. 3: Growth inhibition effect equal to or greater than 50%, and less than 70%. 4: Growth inhibition effect is equal to or greater than 70%, and less than 90%. 5: Growth inhibition effect is equal to or greater than 90%, or complete withering is achieved. ECHDG=Echinochloa crus-galli (L.) P. Beauv. var. formosensis Ohwi, MONVA=Monochoria vaginalis, SCIJU=Scirpus juncoides, CYMIC=Cyperus microiria. The herbicidal activity of the following comparative compounds A and B (the compounds disclosed Japanese Unexamined Patent Publication No. 2003-096059) were evaluated in a manner pursuant to Test Example 1. (#2).

| Structure (SMILES) | ECHDG #1 herbicidal effect (growth inhibition grade) [1] | SCIJU #1 herbicidal effect (growth inhibition grade) (Scirpus juncoides) | ECHDG (2-2.5L) #2 herbicidal effect (growth inhibition grade) [2] |
| --- | --- | --- | --- |
| COCOc1cccc(F)c1CS(=O)(=O)c1ncc(Cl)s1 [Compound 1C-37] | 5 (Growth inhibition effect is equal to or greater than 90%, or complete withering is achieved) | 5 (Growth inhibition effect is equal to or greater than 90%, or complete withering is achieved) | 5 (Growth inhibition effect is equal to or greater than 90%, or complete withering is achieved) |
| O=S(=O)(Cc1c(F)cccc1OC(F)(F)F)c1ncc(Cl)s1 [Compound 1C-48] | 5 (Growth inhibition effect is equal to or greater than 90%, or complete withering is achieved) | 5 (Growth inhibition effect is equal to or greater than 90%, or complete withering is achieved) | 5 (Growth inhibition effect is equal to or greater than 90%, or complete withering is achieved) |
| O=S(=O)(Cc1c(OCC(F)(F)F)cccc1C(F)(F)F)c1ncc(Cl)s1 [Compound 1C-56] | 5 (Growth inhibition effect is equal to or greater than 90%, or complete withering is achieved) | 5 (Growth inhibition effect is equal to or greater than 90%, or complete withering is achieved) | 5 (Growth inhibition effect is equal to or greater than 90%, or complete withering is achieved) |
| O=S(=O)(Cc1ccccc1OC(F)(F)C(F)F)c1ncc(Cl)s1 [Compound 1C-57] | 5 (Growth inhibition effect is equal to or greater than 90%, or complete withering is achieved) | 5 (Growth inhibition effect is equal to or greater than 90%, or complete withering is achieved) | 5 (Growth inhibition effect is equal to or greater than 90%, or complete withering is achieved) |
| O=S(=O)(Cc1ccc(OCc2ccccc2)cc1)c1ncc(Cl)s1 [Compound 1C-120] | 5 (Growth inhibition effect is equal to or greater than 90%, or complete withering is achieved) | 4 (Growth inhibition effect is equal to or greater than 70%, and less than 90%) | 2 (Growth inhibition effect is equal to or greater than 30%, and less than 50%) |
| CC(C)(c1c(F)cccc1OC(F)F)S(=O)(=O)c1ncc(Cl)s1 [Compound 1C-141] | 5 (Growth inhibition effect is equal to or greater than 90%, or complete withering is achieved) | 5 (Growth inhibition effect is equal to or greater than 90%, or complete withering is achieved) | 4 (Growth inhibition effect is equal to or greater than 70%, and less than 90%) |
| COc1cccc(Cl)c1CS(=O)(=O)c1ncc(Br)s1 [Compound 1C-151] | 5 (Growth inhibition effect is equal to or greater than 90%, or complete withering is achieved) | 5 (Growth inhibition effect is equal to or greater than 90%, or complete withering is achieved) | 5 (Growth inhibition effect is equal to or greater than 90%, or complete withering is achieved) |
| O=S(=O)(Cc1ccccc1OC(F)F)c1ncc(Br)s1 [Compound 1C-152] | 5 (Growth inhibition effect is equal to or greater than 90%, or complete withering is achieved) | 5 (Growth inhibition effect is equal to or greater than 90%, or complete withering is achieved) | 5 (Growth inhibition effect is equal to or greater than 90%, or complete withering is achieved) |
| O=S(=O)(Cc1c(F)cccc1OC(F)(F)F)c1ncc(Br)s1 [Compound 1C-158] | 5 (Growth inhibition effect is equal to or greater than 90%, or complete withering is achieved) | 5 (Growth inhibition effect is equal to or greater than 90%, or complete withering is achieved) | 5 (Growth inhibition effect is equal to or greater than 90%, or complete withering is achieved) |
| O=S(=O)(Cc1c(Cl)cccc1OC(F)(F)F)c1ncc(Br)s1 [Compound 1C-159] | 5 (Growth inhibition effect is equal to or greater than 90%, or complete withering is achieved) | 5 (Growth inhibition effect is equal to or greater than 90%, or complete withering is achieved) | 5 (Growth inhibition effect is equal to or greater than 90%, or complete withering is achieved) |
| CCS(=O)(=O)c1cccc(F)c1CS(=O)(=O)c1ncc(Cl)s1 [Compound 1C-174] | 5 (Growth inhibition effect is equal to or greater than 90%, or complete withering is achieved) | 5 (Growth inhibition effect is equal to or greater than 90%, or complete withering is achieved) | 4 (Growth inhibition effect is equal to or greater than 70%, and less than 90%) |
| O=S(=O)(Cc1c(Cl)cc(OC(F)F)cc1Cl)c1ncc(Cl)s1 [Compound 1C-175] | 5 (Growth inhibition effect is equal to or greater than 90%, or complete withering is achieved) | 5 (Growth inhibition effect is equal to or greater than 90%, or complete withering is achieved) | 5 (Growth inhibition effect is equal to or greater than 90%, or complete withering is achieved) |
| O=S(=O)(Cc1c(F)cc(OC(F)F)cc1F)c1ncc(Cl)s1 [Compound 1C-176] | 5 (Growth inhibition effect is equal to or greater than 90%, or complete withering is achieved) | 5 (Growth inhibition effect is equal to or greater than 90%, or complete withering is achieved) | 5 (Growth inhibition effect is equal to or greater than 90%, or complete withering is achieved) |
| O=S(=O)(Cc1c(F)cccc1OCF)c1ncc(Cl)s1 [Compound 1C-179] | 5 (Growth inhibition effect is equal to or greater than 90%, or complete withering is achieved) | 5 (Growth inhibition effect is equal to or greater than 90%, or complete withering is achieved) | 5 (Growth inhibition effect is equal to or greater than 90%, or complete withering is achieved) |
| O=S(=O)(Cc1c(Cl)ccc(OC(F)F)c1F)c1ncc(Cl)s1 [Compound 1C-180] | 5 (Growth inhibition effect is equal to or greater than 90%, or complete withering is achieved) | 5 (Growth inhibition effect is equal to or greater than 90%, or complete withering is achieved) | 5 (Growth inhibition effect is equal to or greater than 90%, or complete withering is achieved) |
| O=C(O)COc1cccc(F)c1CS(=O)(=O)c1ncc(Cl)s1 [Compound 1C-183] | 5 (Growth inhibition effect is equal to or greater than 90%, or complete withering is achieved) | 5 (Growth inhibition effect is equal to or greater than 90%, or complete withering is achieved) | 3 (Growth inhibition effect equal to or greater than 50%, and less than 70%) |
| O=S(=O)(Cc1c(F)cccc1OS(=O)(=O)C(F)(F)F)c1ncc(Cl)s1 [Compound 1C-185] | 5 (Growth inhibition effect is equal to or greater than 90%, or complete withering is achieved) | 5 (Growth inhibition effect is equal to or greater than 90%, or complete withering is achieved) | 5 (Growth inhibition effect is equal to or greater than 90%, or complete withering is achieved) |

Source: patent publication US20200060276A1, “THIAZOLE COMPOUND AND HERBICIDE” (OAT Agrio Co., Ltd., priority 2017, published 2020)
